{
  "source": "patent US20080014218A1",
  "about": "“USE OF TIGHT JUNCTION AGONISTS TO […] DELIVERY OF THERAPEUTIC AGENTS” (ALBA THERAPEUTICS CORP., priority 2006, published 2008)",
  "details": "rats, lung instillation, 10 μg salmon calcitonin + 1 mg FCIGRL vs 10 μg salmon calcitonin alone",
  "experimental": "An aqueous saline solution containing 10 μg of salmon calcitonin was instilled into the lungs of rats and serum calcitonin levels were measured by ELISA. An aqueous saline solution containing 10 μg of salmon calcitonin and 1 mg of the tight junction agonist peptide FCIGRL was instilled into the lungs of rats and serum calcitonin levels were measured by ELISA.",
  "note": "Where no end group is shown, it is not given here.",
  "data": [
    {"substance": "FCIGRL [FCIGRL]", "values": [
      {"measurement": "increase in area under the curve (AUC) of serum calcitonin", "result": "approximately 10.6 fold"},
      {"measurement": "increase in observed peak serum calcitonin levels", "result": "approximately three-fold"}
    ]}
  ]
}
